# Experimental data reported in US11390589B2, “Herbicidally active substituted phenylpyrimidines” (Bayer Aktiengesellschaft, priority 2018, dated 2022).
# Experiments:
# Type in all cases: in vivo
# harmful plants [1] = assay: Method A: post-emergence herbicidal action, summary in text; settings: applied post-emergence, table A (320 g/ha)
# Description: (§1) Method A: Post-Emergence Herbicidal Action and Crop Plant Compatibility
# (§2) Seeds of monocotyledonous and dicotyledonous weeds and crop plants are placed in sandy loam in plastic or organic planting pots, covered with soil and cultivated in a greenhouse under controlled growth conditions. 2 to 3 weeks after sowing, the test plants are treated at the one-leaf stage. The compounds of the invention, formulated in the form of wettable powders (WP) or as emulsion concentrates (EC), are then sprayed onto the green parts of the plants as aqueous suspension or emulsion with addition of 0.5% additive at a water application rate of […] (converted). After the test plants have been kept in the greenhouse under optimum growth conditions for about 3 weeks, the activity of the preparations is rated visually in comparison to untreated controls. For example, 100% activity=the plants have died, 0% activity=like control plants.
# Avena fatua [2] = assay: Method B: pre-emergence herbicidal action; settings: scored visually after about 3 weeks
# Description: (§3) Method B: Pre-Emergence Herbicidal Action and Crop Plant Compatibility
# (§4) Seeds of monocotyledonous and dicotyledonous weed plants and crop plants are placed in plastic or organic planting pots and covered with soil. The compounds of the invention, formulated in the form of wettable powders (WP) or as emulsion concentrates (EC), are then applied onto the surface of the covering soil as aqueous suspension or emulsion with addition of 0.5% additive at a water application rate of 6001/ha (converted). After the treatment, the pots are placed in a greenhouse and kept under good growth conditions for the trial plants. After about 3 weeks, the effect of the preparations is scored visually in comparison with untreated controls as percentages. For example, 100% activity=the plants have died, 0% activity=like control plants.
# Digitaria sanguinalis = assay: Method B: pre-emergence herbicidal action; settings: scored visually after about 3 weeks
# Description: as §3, §4
# Hordeum murinum [3] = assay: Method B: pre-emergence herbicidal action; settings: scored visually after about 3 weeks
# Description: as §3, §4
# Polygonum convolvulus [4] = assay: Method B: pre-emergence herbicidal action; settings: scored visually after about 3 weeks
# Description: as §3, §4
# Echinochloa crus-galli [5] = assay: Method B: pre-emergence herbicidal action; settings: scored visually after about 3 weeks
# Description: as §3, §4
# Alopecurus myosuroides [6] = assay: Method B: pre-emergence herbicidal action; settings: scored visually after about 3 weeks
# Description: as §3, §4
# Abufilon theophrast [7] = assay: Method B: pre-emergence herbicidal action; settings: scored visually after about 3 weeks
# Description: as §3, §4
# Lolium rigidum [8] = assay: Method B: pre-emergence herbicidal action; settings: scored visually after about 3 weeks
# Description: as §3, §4
# Stellaria media [9] = assay: Method B: pre-emergence herbicidal action; settings: scored visually after about 3 weeks
# Description: as §3, §4
# Avena fatua [10] = assay: Method A: post-emergence herbicidal action; settings: rated visually after about 3 weeks
# Description: as §1, §2
# Hordeum murinum [11] = assay: Method A: post-emergence herbicidal action; settings: rated visually after about 3 weeks
# Description: as §1, §2
# Polygonum convolvulus [12] = assay: Method A: post-emergence herbicidal action; settings: rated visually after about 3 weeks
# Description: as §1, §2
# Echinochloa crus-galli [13] = assay: Method A: post-emergence herbicidal action; settings: rated visually after about 3 weeks
# Description: as §1, §2
# Alopecurus myosuroides [14] = assay: Method A: post-emergence herbicidal action; settings: rated visually after about 3 weeks
# Description: as §1, §2
# Lolium rigidum [15] = assay: Method A: post-emergence herbicidal action; settings: rated visually after about 3 weeks
# Description: as §1, §2
# Stellaria media [16] = assay: Method A: post-emergence herbicidal action; settings: rated visually after about 3 weeks
# Description: as §1, §2
# Poa annua [17] = assay: Method E: herbicidal early post-emergence action; settings: cotyledon stage, 96-well microtiter plates, scored visually after 9 to 12 days
# Description: (§5) Method E: Herbicidal Early Post-Emergence Action Seeds of monocotyledonous or dicotyledonous weed plants are placed in 96-well microtiter plates in quartz sand and grown in a climatized chamber under controlled growth conditions. 5 to 7 days after sowing, the test plants are treated at the cotyledon stage. The compounds of the invention, formulated in the form of emulsion concentrates (EC), are applied with a water application rate of the equivalent of 2200 liters per hectare. After the test plants had been left to stand in the climatized chamber for 9 to 12 days under optimum growth conditions, the effect of the preparations is scored visually in comparison to untreated controls. For example, 100% activity=the plants have died, 0% activity=like control plants.
# Lolium perenne = assay: Method E: herbicidal early post-emergence action; settings: cotyledon stage, 96-well microtiter plates, scored visually after 9 to 12 days
# Description: as §5
# Stellaria media [18] = assay: Method E: herbicidal early post-emergence action; settings: cotyledon stage, 96-well microtiter plates, scored visually after 9 to 12 days
# Description: as §5
# Matricaria chamonilla = assay: Method E: herbicidal early post-emergence action; settings: cotyledon stage, 96-well microtiter plates, scored visually after 9 to 12 days
# Description: as §5
# Agrostis tenuis = assay: Method E: herbicidal early post-emergence action; settings: cotyledon stage, 96-well microtiter plates, scored visually after 9 to 12 days
# Description: as §5
# harmful plants [19] = assay: Method B: pre-emergence herbicidal action, summary in text; settings: applied pre-emergence, table B (320 g/ha)
# Description: as §3, §4
# harmful plants [20] = assay: Method E: herbicidal early post-emergence action, summary in text; settings: applied in early post-emergence, table E (1900 g/ha)
# Description: as §5
# Poa annua [21] = assay: Method C: herbicidal post-emergence action; settings: rated visually after about 3 weeks
# Description: (§6) Method C: Herbicidal Post-Emergence Action Seeds of mono- and dicotyledonous weed plants are placed in plastic pots in sandy loam soil (doubly sown with one species each of mono- or dicotyledonous weed plants per pot), covered with soil and cultivated in a greenhouse under controlled growth conditions. 2 to 3 weeks after sowing, the test plants are treated at the one-leaf stage. The compounds of the invention, formulated in the form of wettable powders (WP) or as emulsion concentrates (EC), are applied to the green parts of the plants as aqueous suspension or emulsion with addition of 0.5% additive at a water application rate equivalent to 600 liters per hectare. After the test plants have been kept in the greenhouse under optimum growth conditions for about 3 weeks, the activity of the preparations is rated visually in comparison to untreated controls. For example, 100% activity=the plants have died, 0% activity=like control plants.
# Echinochloa crus-galli [22] = assay: Method C: herbicidal post-emergence action; settings: rated visually after about 3 weeks
# Description: as §6
# Lolium rigidum [23] = assay: Method C: herbicidal post-emergence action; settings: rated visually after about 3 weeks
# Description: as §6
# Stellaria media [24] = assay: Method C: herbicidal post-emergence action; settings: rated visually after about 3 weeks
# Description: as §6
# harmful plants [25] = assay: Method C: herbicidal post-emergence action, summary in text; settings: applied post-emergence, table C (1280 g/ha)
# Description: as §6
# Poa annua [26] = assay: Method D: herbicidal pre-emergence action; settings: scored visually after about 3 weeks
# Description: as §4, with “Method D: Herbicidal Pre-Emergence Action Seeds” for “Seeds”, “mono-” for “monocotyledonous”, “weed” for “weed plants and crop”, “plastic pots in sandy loam soil (doubly sown with one species each of mono-” for “plastic”, “dicotyledonous weed plants per pot)” for “organic planting pots”, “600 liters per hectare” for “6001/ha”
# Echinochloa crus-galli [27] = assay: Method D: herbicidal pre-emergence action; settings: scored visually after about 3 weeks
# Description: as §4, with “Method D: Herbicidal Pre-Emergence Action Seeds” for “Seeds”, “mono-” for “monocotyledonous”, “weed” for “weed plants and crop”, “plastic pots in sandy loam soil (doubly sown with one species each of mono-” for “plastic”, “dicotyledonous weed plants per pot)” for “organic planting pots”, “600 liters per hectare” for “6001/ha”
# Abufilon theophrast [28] = assay: Method D: herbicidal pre-emergence action; settings: scored visually after about 3 weeks
# Description: as §4, with “Method D: Herbicidal Pre-Emergence Action Seeds” for “Seeds”, “mono-” for “monocotyledonous”, “weed” for “weed plants and crop”, “plastic pots in sandy loam soil (doubly sown with one species each of mono-” for “plastic”, “dicotyledonous weed plants per pot)” for “organic planting pots”, “600 liters per hectare” for “6001/ha”
# Setaria viridis = assay: Method D: herbicidal pre-emergence action; settings: scored visually after about 3 weeks
# Description: as §4, with “Method D: Herbicidal Pre-Emergence Action Seeds” for “Seeds”, “mono-” for “monocotyledonous”, “weed” for “weed plants and crop”, “plastic pots in sandy loam soil (doubly sown with one species each of mono-” for “plastic”, “dicotyledonous weed plants per pot)” for “organic planting pots”, “600 liters per hectare” for “6001/ha”
# Lolium rigidum [29] = assay: Method D: herbicidal pre-emergence action; settings: scored visually after about 3 weeks
# Description: as §4, with “Method D: Herbicidal Pre-Emergence Action Seeds” for “Seeds”, “mono-” for “monocotyledonous”, “weed” for “weed plants and crop”, “plastic pots in sandy loam soil (doubly sown with one species each of mono-” for “plastic”, “dicotyledonous weed plants per pot)” for “organic planting pots”, “600 liters per hectare” for “6001/ha”
# Stellaria media [30] = assay: Method D: herbicidal pre-emergence action; settings: scored visually after about 3 weeks
# Description: as §4, with “Method D: Herbicidal Pre-Emergence Action Seeds” for “Seeds”, “mono-” for “monocotyledonous”, “weed” for “weed plants and crop”, “plastic pots in sandy loam soil (doubly sown with one species each of mono-” for “plastic”, “dicotyledonous weed plants per pot)” for “organic planting pots”, “600 liters per hectare” for “6001/ha”
# Matricaria inodora = assay: Method D: herbicidal pre-emergence action; settings: scored visually after about 3 weeks
# Description: as §4, with “Method D: Herbicidal Pre-Emergence Action Seeds” for “Seeds”, “mono-” for “monocotyledonous”, “weed” for “weed plants and crop”, “plastic pots in sandy loam soil (doubly sown with one species each of mono-” for “plastic”, “dicotyledonous weed plants per pot)” for “organic planting pots”, “600 liters per hectare” for “6001/ha”
# harmful plants [31] = assay: Method D: herbicidal pre-emergence action, summary in text; settings: applied pre-emergence, table D (1280 g/ha)
# Description: as §4, with “Method D: Herbicidal Pre-Emergence Action Seeds” for “Seeds”, “mono-” for “monocotyledonous”, “weed” for “weed plants and crop”, “plastic pots in sandy loam soil (doubly sown with one species each of mono-” for “plastic”, “dicotyledonous weed plants per pot)” for “organic planting pots”, “600 liters per hectare” for “6001/ha”
SMILES,herbicidal efficacy against harmful plants (harmful plants [1]),Pre-emergence action at 320 g/ha AVEFA (Avena fatua [2]) [%],Pre-emergence action at 320 g/ha DIGSA (Digitaria sanguinalis) [%],Pre-emergence action at 320 g/ha HORMU (Hordeum murinum [3]) [%],Pre-emergence action at 320 g/ha POLCO (Polygonum convolvulus [4]) [%],Pre-emergence action at 320 g/ha ECHCG (Echinochloa crus-galli [5]) [%],Pre-emergence action at 320 g/ha ALOMY (Alopecurus myosuroides [6]) [%],Pre-emergence action at 320 g/ha ABUTH (Abufilon theophrast [7]) [%],Pre-emergence action at 320 g/ha LOLRI (Lolium rigidum [8]) [%],Pre-emergence action at 320 g/ha STEME (Stellaria media [9]) [%],Post-emergence action at 320 g/ha AVEFA (Avena fatua [10]) [%],Post-emergence action at 320 g/ha HORMU (Hordeum murinum [11]) [%],Post-emergence action at 320 g/ha POLCO (Polygonum convolvulus [12]) [%],Post-emergence action at 320 g/ha ECHCG (Echinochloa crus-galli [13]) [%],Post-emergence action at 320 g/ha ALOMY (Alopecurus myosuroides [14]) [%],Early post-emergence action at 1900 g/ha POAAN (Poa annua [17]) [%],Early post-emergence action at 1900 g/ha LOLPE (Lolium perenne) [%],Early post-emergence action at 1900 g/ha STEME (Stellaria media [18]) [%],Early post-emergence action at 1900 g/ha MATCH (Matricaria chamonilla) [%],Early post-emergence action at 1900 g/ha AGSTE (Agrostis tenuis) [%],further results
"CN(C)C(=O)C(=O)Cc1nc(C2CC2)ncc1-c1ccccc1Cl [Example I-139, 3-[5-(2-chlorophenyl)-2-cyclopropylpyrimidin-4-yl]-N,N-dimethyl-2-oxopropanamide]",very good herbicidal efficacy,80,100,90,90,100,100,80,100,100,90,90,90,90,100,100,80,100,100,100,Post-emergence action at 320 g/ha LOLRI (Lolium rigidum [15]): 100%; Post-emergence action at 320 g/ha STEME (Stellaria media [16]): 80%; herbicidal efficacy against harmful plants (harmful plants [19]): very good herbicidal efficacy
"O=C(Cc1nc(C2CC2)ncc1-c1c(F)cccc1Cl)C(=O)N1CCCCC1 [Example I-146, 3-[5-(2-chloro-6-fluorophenyl)-2-cyclopropylpyrimidin-4-yl]-1-(piperidin-1-yl)propane-1,2-dione]",,,,,,,,,,,,,,,,80,80,80,80,80,
"CCOC(=O)C(=O)Cc1nc(C2CC2)ncc1-c1ccccc1Cl [II-099, ethyl 3-[5-(2-chlorophenyl)-2-cyclopropylpyrimidin-4-yl]-2-oxopropanoate]",very good herbicidal efficacy,90,90,90,90,100,100,80,100,100,90,80,90,90,90,100,,,100,100,Post-emergence action at 320 g/ha LOLRI (Lolium rigidum [15]): 100%; Post-emergence action at 320 g/ha STEME (Stellaria media [16]): 100%; herbicidal efficacy against harmful plants (harmful plants [19]): very good herbicidal efficacy; herbicidal efficacy against harmful plants (harmful plants [20]): very good herbicidal efficacy
"CN(NC(=O)C(=O)Cc1nc(C2CC2)ncc1-c1ccccc1Cl)C(=O)OC(C)(C)C [IV-137, tert-butyl 2-{3-[5-(2-chlorophenyl)-2-cyclopropylpyrimidin-4-yl]-2-oxopropanoyl}-1-methylhydrazinecarboxylate]",,,,,,,,,,,,,,,,80,80,100,80,100,Post-emergence action at 1280 g/ha POAAN (Poa annua [21]): 100%; Post-emergence action at 1280 g/ha ECHCG (Echinochloa crus-galli [22]): 100%; Post-emergence action at 1280 g/ha LOLRI (Lolium rigidum [23]): 100%; Post-emergence action at 1280 g/ha STEME (Stellaria media [24]): 100%; herbicidal efficacy against harmful plants (harmful plants [25]): very good herbicidal efficacy; herbicidal efficacy against harmful plants (harmful plants [20]): very good herbicidal efficacy; Pre-emergence action at 1280 g/ha POAAN (Poa annua [26]): 100%; Pre-emergence action at 1280 g/ha ECHCG (Echinochloa crus-galli [27]): 90%; Pre-emergence action at 1280 g/ha ABUTH (Abufilon theophrast [28]): 90%; Pre-emergence action at 1280 g/ha SETVI (Setaria viridis): 90%; Pre-emergence action at 1280 g/ha LOLRI (Lolium rigidum [29]): 90%; Pre-emergence action at 1280 g/ha STEME (Stellaria media [30]): 100%; Pre-emergence action at 1280 g/ha MATIN (Matricaria inodora): 90%; herbicidal efficacy against harmful plants (harmful plants [31]): very good herbicidal efficacy
